These results are taken from US20180238860A1, “INDIVIDUAL METHOD PREDICTIVE OF THE DNA-BREAKING GENOTOXIC EFFECTS OF CHEMICAL OR BIOCHEMICAL AGENTS” (priority 2015, published 2018).

In data set [1] the test system is 01PAU cells. Put plainly: Micronuclei per 100 cells 24 h after contacting, 01PAU. In kind it is cell-based, human. As for the experimental part: (§1) In one embodiment, on receipt, the tissue sample (typically the biopsy) is established in the form of an amplifiable cell line without a viral or chemical transformation agent according to an ancillary procedure well known to culture laboratories, as underlined by the publication of Elkind et al. “The radiobiology of cultured mammalian cell”, Gordon and Breach (1967). Once the number of cells is sufficient (typically after 1 to 3 weeks), the first experiments are carried out using the process according to the invention. A cell sample is prepared: The cells are inoculated on glass coverslips in Petri dishes. A portion of these coverslips are contaminated with metals or pesticides or any other DNA-breaking chemical or biochemical agent at different concentrations. A further portion is not contaminated; it represents the spontaneous state. During contamination, the cells remain in the culture incubator at 37° C.
(§2) the cells are fixed in 3% paraformaldehyde and 2% sucrose for 15 minutes at ambient temperature and permeabilized in 20 mM HEPES buffer solution (4-(2-hydroxyethyl)-1-piperazine ethane sulfonic acid) at pH 7.4, 50 mM NaCl, 3 mM MgCl2, 300 mM sucrose, 0.5% Triton X-100 (a non-ionic surfactant having the formula t-Oct-C6H4-(OCH2CH2)×OH where x=9-10, CAS No. 9002-93-1, supplied for example by Sigma Aldrich) for 3 minutes. The glass coverslips are then washed in phosphate buffer saline (known as the acronym PBS) before immunological staining. The incubation took place for 40 min at 37° C. in PBS supplemented with 2% bovine serum albumin (known as the acronym BSA or fraction V, supplied for example by Sigma Aldrich) and was followed by a wash with PBS. Anti-pH2AX primary antibodies are used at a concentration of 1:800. The incubations with anti-mouse FITC or anti-rabbit TRITC secondary antibodies (1:100, supplied by Sigma Aldrich) were performed at 37° C. in 2% BSA for 20 minutes. Glass coverslips were treated with Vectashield™ containing DAPI (4,6-Diamidino-2-phenylindole) to label the nucleus. Staining with DAPI also makes it possible, indirectly, to determine the number of cells in phase G1 (nuclei with homogenous DAPI staining), in phase S (nuclei with numerous pH2AX foci), in phase G2 (nuclei with heterogeneous DAPI staining) and metaphases (visible chromosomes).
(§3) Counterstaining with DAPI (a DNA marker known to those skilled in the art) makes it possible to locate the nucleus to situate the cytoplasmic or nuclear location to quantify the micronuclei, which are complementary cell markers to the data on the foci.
(§4) The tables hereinafter summarize the results of numerous experiments which were carried out as described in the “Detailed description” section above. […]

Data set [2] concerns 01PAU cells. Briefly: pH2AX foci 24 h after contacting, 01PAU. It is filed as cell-based, human. As for the experimental part: as §1
(§5) For the contaminated cells, characteristics are acquired corresponding to the state after an incubation time with the DNA-breaking chemical or biochemical agent. Said characteristics are represented by foci corresponding to the marker pH2AX. The cells on glass coverslips are then fixed, lysed and hybridized. The following procedure, known per se (Bodgi et al, “A single formula to describe radiation-induced protein relocalization: towards a mathematical definition of individual radiosensitivity”, J Theor Biol. 21 p 333:135-45.2013):
(§6) the cells are fixed in 3% paraformaldehyde and 2% sucrose for 15 minutes at ambient temperature and permeabilized in 20 mM HEPES buffer solution (4-(2-hydroxyethyl)-1-piperazine ethane sulfonic acid) at pH 7.4, 50 mM NaCl, 3 mM MgCl2, 300 mM sucrose, 0.5% Triton X-100 (a non-ionic surfactant having the formula t-Oct-C6H4-(OCH2CH2)×OH where x=9-10, CAS No. 9002-93-1, supplied for example by Sigma Aldrich) for 3 minutes. The glass coverslips are then washed in phosphate buffer saline (known as the acronym PBS) before immunological staining. The incubation took place for 40 min at 37° C. in PBS supplemented with 2% bovine serum albumin (known as the acronym BSA or fraction V, supplied for example by Sigma Aldrich) and was followed by a wash with PBS. Anti-pH2AX primary antibodies are used at a concentration of 1:800. […]
(§7) The results are acquired using these coverslips on an immunofluorescence microscope (Olympus model for example). The reading may be direct (typically by counting the foci on at least 50 cells in G0/G1 for each point) or using dedicated image analysis software, or on an automated microscope; preferably the software or automated microscope methods are calibrated with manual determinations. […]

The subject of data set [3] is pH2AX nuclear foci (DNA double-strand breaks). Briefly: Single toxicity scale: reference concentration Cref and risk group prediction from NpH2AX(24 h). It is filed as cell-based, human. Particulars: for Reference concentration Cref: NpH2AX(24 h) < 2, determined from data of table 4. As for the experimental part: (i) if the reference concentration has not previously been determined by the chemical or biochemical agent to be studied, a cell sample is prepared by dispersion and/or amplification of so-called reference cells (sensitivity group I); a plurality of concentrations within a broad concentration range of said breaking agent (said concentration range ranging for example from nM to mM) is applied for a predetermined period of time (preferably 24 hours) on this cell sample; pH2AX immunofluorescence is performed with DAPI counterstaining which also enables on the same cell sample the analysis of micronuclei for all the concentrations applied.
(ii) Either the mean number of nuclear foci observed with the marker pH2AX at the observation times t and at the concentration C (this mean number being referred to as NpH2AX(t, C)), or the mean number of micronuclei per 100 cells at the observation times t and at the concentration C (this mean number being referred to as NMN(t, C)), or the standard error a corresponding to the error committed on these respective measurements which must be performed on at least 50 nuclei once (Gaussian standard error) or 3 independent experiments of 50 nuclei (standard error of the mean).
(iii) The so-called reference concentration Cref is the concentration giving:
NpH2AX(24 h,Cref)+2σ=2 or indeed NMN(24 h,Cref)+2σ=2%;
If for the cell sample NpH2AX(24 h, Cref)<=2 or NMN(24 h, Cref)<=0.5%, preferably NMN(24 h, Cref)<=1% or even more preferentially NMN(24 h, Cref)<=2%, then the genotoxic risk is considered to be low or described as “Group I”
The experimental data presented in table 4 above were used to determine the reference concentration Cref particularly for Pb(NO3)2 (Cref<1 μM) and CdCl2 (Cref=10 μM).
Table 5 presents numerical examples of correspondence between the single toxicity scale according to the invention and the corresponding clinical signs.

The next data set relates to humans exposed. Particulars: clinical effects observed, cited from earlier work.
Data set [4] has as its system HMEC cells. Put plainly: Micronuclei per 100 cells 24 h after contacting, Table 4 lower part (HMEC). In kind it is cell-based, human. The note with it: line cell blank (below Hasp). As for the experimental part: as §1, §2, §3
(§8) The tables hereinafter summarize the results of numerous experiments which were carried out as described in the “Detailed description” section above.
(§9) In tables 3 and 4, “pH2AX” corresponds to the mean number of nuclear foci obtained with the marker pH2AX, 24 hours after contacting the cell sample with the chemical agent at the concentration C (NpH2AX(24 h, C)), and where “Micronuclei” corresponds to the mean number of micronuclei observed per 100 cells 24 hours after contacting the cell sample with the chemical agent at the concentration C(NMN(24 h, C)).

Data set [5] relates to HMEC cells. Briefly: pH2AX foci 24 h after contacting, Table 4 lower part (HMEC endothelial cells). In kind it is cell-based, human. The note with it: line cell blank (below Hasp), 24 hours after contacting. As for the experimental part:
as §1, §5, §2
The results are acquired using these coverslips on an immunofluorescence microscope (Olympus model for example). The reading may be direct (typically by counting the foci on at least 50 cells in G0/G1 for each point) or using dedicated image analysis software, or on an automated microscope; preferably the software or automated microscope methods are calibrated with manual determinations.
as §8, §9

For data set [6], the system named is 08HNG cells. Briefly: pH2AX foci 24 h after contacting, 08HNG. In kind it is cell-based, human. As for the experimental part:
as §1, §5, §6, §7

The subject of data set [7] is 08HNG cells. Put plainly: Micronuclei per 100 cells 24 h after contacting, 08HNG. In kind it is cell-based, human. The method, then:
as §1, §2, §3, §4

Take `CC1(C)C(C=C(Cl)Cl)C1C(=O)OCc1cccc(Oc2ccccc2)c1` (stereo not drawn) [Permethrin]: the Micronuclei in the data set with 01PAU cells [1] (0.3 μM) is on record as 2 per 100 cells; with 01PAU cells [1] (1 μM) it was 2 per 100 cells; in the data set on 01PAU cells [1] (5 μM) it was 4 per 100 cells; in the data set with 01PAU cells [1] (10 μM), 6 per 100 cells. Besides, the pH2AX came out at 0.1 foci in the data set with 01PAU cells [2] (0.3 μM), 0.2 foci with 01PAU cells [2] (1 μM), 1.3 foci in the data set with 01PAU cells [2] (5 μM) and 1.8 foci in the data set on 01PAU cells [2] (10 μM).

As for `O=[N+]([O-])[O-].O=[N+]([O-])[O-].[Pb+2]` [Pb(NO3)2], the “Reference concentration Cref” value in data set [3] is < 1 µM; in data set [3] (listed as Lead), <1 µM. In addition, the “Prediction based on algorithm: concentration above which “Group III” risk” value in data set [3] (NpH2AX(24 h) > 8) is > 30 µM. Further, the “Onset of signs of saturnism, concentration in blood” value with humans exposed is reported as “Onset of signs of saturnism above 100 μg/l of μg/l of blood”. In addition, the “Onset of signs of saturnism, corresponding concentration” value with humans exposed (corresponding to 100 μg/l of blood) is listed as “blood corresponding to approximately 2 μM”. The Micronuclei in the data set with HMEC cells [4] (10 μM) turned out to be 0 per 100 cells; with HMEC cells [4] (30 μM), 7 per 100 cells; in the data set with HMEC cells [4] (100 μM), 12 per 100 cells; in the data set with HMEC cells [4] (300 μM), 20 per 100 cells; in the data set with HMEC cells [4] (1000 μM), 10 per 100 cells. Besides, the pH2AX in the data set with HMEC cells [5] (10 μM) came out at 4 foci; in the data set with HMEC cells [5] (30 μM) it was 7.5 foci; in the data set on HMEC cells [5] (100 μM) it was 15 foci; in the data set with HMEC cells [5] (300 μM), 21 foci.

For `c1ccc2[nH]c(-c3cscn3)nc2c1` [Thiobendazole], the pH2AX turned out to be 1.8 foci with 08HNG cells [6] (0.3 μM), 2 foci with 08HNG cells [6] (1 μM), 4.3 foci with 08HNG cells [6] (3 μM) and 6 foci in the data set on 08HNG cells [6] (10 μM). In addition, the Micronuclei in the data set on 08HNG cells [7] (0.3 μM) is listed as 2 per 100 cells; with 08HNG cells [7] (1 μM), 4 per 100 cells; in the data set on 08HNG cells [7] (3 μM), 10 per 100 cells; in the data set with 08HNG cells [7] (10 μM), 10 per 100 cells.
